# Source: ChEMBL document CHEMBL4649987, “Benzoisoquinolinediones as Potent and Selective Inhibitors of BRPF2 and TAF1/TAF1L Bromodomains” (ACS Chem Biol, 2017)
# Where “and” joins values, the source holds several entries; their conditions need not be identical. Equal entries are not always repeated.
# Tests used:
# [1] = target: Protein polybromo-1 (Homo sapiens) (UniProt Q86U86); conditions: Compound concentration 10.0 uM, Protein concentration 2.0 uM
# [2] = target: Bromodomain adjacent to zinc finger domain protein 2A (Homo sapiens) (UniProt Q9UIF9); conditions: Compound concentration 10.0 uM, Protein concentration 2.0 uM
# [3] = target: Bromodomain adjacent to zinc finger domain protein 1A (Homo sapiens) (UniProt Q9NRL2); conditions: Compound concentration 10.0 uM, Protein concentration 2.0 uM
# [4] = target: Transcription initiation factor TFIID subunit 1-like (Homo sapiens) (UniProt Q8IZX4); conditions: Compound concentration 10.0 uM, Protein concentration 2.0 uM
# [5] = target: ATPase family AAA domain-containing protein 2B (Homo sapiens) (UniProt Q9ULI0); conditions: Compound concentration 10.0 uM, Protein concentration 2.0 uM
# [6] = target: Histone acetyltransferase p300 (Homo sapiens) (UniProt Q09472); conditions: Compound concentration 10.0 uM, Protein concentration 2.0 uM
# [7] = target: Protein polybromo-1 (Homo sapiens) (UniProt Q86U86); conditions: Compound concentration 10.0 uM, Protein concentration 2.0 uM; remark: listed apart in the source
# [8] = target: Bromodomain-containing protein 2 (Homo sapiens) (UniProt P25440); conditions: Compound concentration 10.0 uM, Protein concentration 2.0 uM
# [9] = target: Bromodomain-containing protein 3 (Homo sapiens) (UniProt Q15059); conditions: Compound concentration 10.0 uM, Protein concentration 2.0 uM
# [10] = target: Transcription initiation factor TFIID subunit 1-like (Homo sapiens) (UniProt Q8IZX4); conditions: Compound concentration 10.0 uM, Protein concentration 2.0 uM; remark: listed apart in the source
# [11] = target: Bromodomain-containing protein 4 (Homo sapiens) (UniProt O60885); conditions: Compound concentration 10.0 uM, Protein concentration 2.0 uM
# [12] = target: Transcription intermediary factor 1-alpha (Homo sapiens) (UniProt O15164); conditions: Compound concentration 10.0 uM, Protein concentration 2.0 uM
# [13] = target: Protein polybromo-1 (Homo sapiens) (UniProt Q86U86); conditions: Compound concentration 10.0 uM, Protein concentration 2.0 uM; remark: listed apart in the source
# [14] = target: Bromodomain-containing protein 9 (Homo sapiens) (UniProt Q9H8M2); conditions: Compound concentration 10.0 uM, Protein concentration 2.0 uM
# [15] = target: Protein polybromo-1 (Homo sapiens) (UniProt Q86U86); conditions: Compound concentration 10.0 uM, Protein concentration 2.0 uM; remark: listed apart in the source
# [16] = target: Bromodomain-containing protein 4 (Homo sapiens) (UniProt O60885); conditions: Compound concentration 10.0 uM, Protein concentration 2.0 uM; remark: listed apart in the source
# [17] = target: Bromodomain-containing protein 2 (Homo sapiens) (UniProt P25440); conditions: Compound concentration 10.0 uM, Protein concentration 2.0 uM; remark: listed apart in the source
# [18] = target: Bromodomain and WD repeat-containing protein 3 (Homo sapiens) (UniProt Q6RI45); conditions: Compound concentration 10.0 uM, Protein concentration 2.0 uM
# [19] = target: Transcription intermediary factor 1-alpha (Homo sapiens) (UniProt O15164); conditions: Compound concentration 10.0 uM, Protein concentration 2.0 uM; remark: listed apart in the source
# [20] = target: Protein polybromo-1 (Homo sapiens) (UniProt Q86U86); conditions: Compound concentration 10.0 uM, Protein concentration 2.0 uM; remark: listed apart in the source
# [21] = target: Histone-lysine N-methyltransferase 2A (Homo sapiens) (UniProt Q03164); conditions: Compound concentration 10.0 uM, Protein concentration 2.0 uM
# [22] = target: Bromodomain testis-specific protein (Homo sapiens) (UniProt Q58F21); conditions: Compound concentration 10.0 uM, Protein concentration 2.0 uM
# [23] = target: Bromodomain-containing protein 7 (Homo sapiens) (UniProt Q9NPI1); conditions: Compound concentration 10.0 uM, Protein concentration 2.0 uM
# [24] = target: Protein polybromo-1 (Homo sapiens) (UniProt Q86U86); conditions: Compound concentration 10.0 uM, Protein concentration 2.0 uM; remark: listed apart in the source
# [25] = target: Histone acetyltransferase KAT2B (Homo sapiens) (UniProt Q92831); conditions: Compound concentration 10.0 uM, Protein concentration 2.0 uM
# [26] = target: Transcription initiation factor TFIID subunit 1 (Homo sapiens) (UniProt P21675); conditions: Compound concentration 10.0 uM, Protein concentration 2.0 uM
# [27] = target: SWI/SNF-related matrix-associated actin-dependent regulator of chromatin subfamily A member 4 (Homo sapiens) (UniProt P51532); conditions: Compound concentration 10.0 uM, Protein concentration 2.0 uM
# [28] = target: Bromodomain testis-specific protein (Homo sapiens) (UniProt Q58F21); conditions: Compound concentration 10.0 uM, Protein concentration 2.0 uM; remark: listed apart in the source
# [29] = target: Bromodomain and PHD finger-containing protein 3 (Homo sapiens) (UniProt Q9ULD4); conditions: Compound concentration 10.0 uM, Protein concentration 2.0 uM
# [30] = target: Nuclear body protein SP140-like protein (Homo sapiens) (UniProt Q9H930); conditions: Compound concentration 10.0 uM, Protein concentration 2.0 uM
# [31] = target: Histone acetyltransferase KAT2A (Homo sapiens) (UniProt Q92830); conditions: Compound concentration 10.0 uM, Protein concentration 2.0 uM
# [32] = target: Bromodomain adjacent to zinc finger domain protein 2B (Homo sapiens) (UniProt Q9UIF8); conditions: Compound concentration 10.0 uM, Protein concentration 2.0 uM
# [33] = target: E3 ubiquitin-protein ligase TRIM33 (Homo sapiens) (UniProt Q9UPN9); conditions: Compound concentration […], Protein concentration 200.0 uM
# [34] = target: Histone-lysine N-methyltransferase ASH1L (Homo sapiens) (UniProt Q9NR48); conditions: Compound concentration 10.0 uM, Protein concentration 2.0 uM
# [35] = target: SWI/SNF-related matrix-associated actin-dependent regulator of chromatin subfamily A member 2 (Homo sapiens) (UniProt P51531); conditions: Compound concentration 10.0 uM, Protein concentration 2.0 uM
# [36] = target: Nuclear body protein SP140 (Homo sapiens) (UniProt Q13342); conditions: Compound concentration 10.0 uM, Protein concentration 2.0 uM
# [37] = target: Bromodomain-containing protein 3 (Homo sapiens) (UniProt Q15059); conditions: Compound concentration 10.0 uM, Protein concentration 2.0 uM; remark: listed apart in the source
# [38] = target: Transcription initiation factor TFIID subunit 1 (Homo sapiens) (UniProt P21675); conditions: Compound concentration 10.0 uM, Protein concentration 2.0 uM; remark: listed apart in the source
# [39] = target: Transcription intermediary factor 1-beta (Homo sapiens) (UniProt Q13263); conditions: Compound concentration 10.0 uM, Protein concentration 2.0 uM
# [40] = target: ATPase family AAA domain-containing protein 2 (Homo sapiens) (UniProt Q6PL18); conditions: Compound concentration 10.0 uM, Protein concentration 2.0 uM
# [41] = target: Tyrosine-protein kinase BAZ1B (Homo sapiens) (UniProt Q9UIG0); conditions: Compound concentration 10.0 uM, Protein concentration 2.0 uM
# [42] = target: Nucleosome-remodeling factor subunit BPTF (Homo sapiens) (UniProt Q12830); conditions: Compound concentration 10.0 uM, Protein concentration 2.0 uM
# [43] = target: PH-interacting protein (Homo sapiens) (UniProt Q8WWQ0); conditions: Compound concentration 10.0 uM, Protein concentration 2.0 uM
# Chain of Protein polybromo-1 (Homo sapiens) (Q86U86 whole entry, the tested form may be a part): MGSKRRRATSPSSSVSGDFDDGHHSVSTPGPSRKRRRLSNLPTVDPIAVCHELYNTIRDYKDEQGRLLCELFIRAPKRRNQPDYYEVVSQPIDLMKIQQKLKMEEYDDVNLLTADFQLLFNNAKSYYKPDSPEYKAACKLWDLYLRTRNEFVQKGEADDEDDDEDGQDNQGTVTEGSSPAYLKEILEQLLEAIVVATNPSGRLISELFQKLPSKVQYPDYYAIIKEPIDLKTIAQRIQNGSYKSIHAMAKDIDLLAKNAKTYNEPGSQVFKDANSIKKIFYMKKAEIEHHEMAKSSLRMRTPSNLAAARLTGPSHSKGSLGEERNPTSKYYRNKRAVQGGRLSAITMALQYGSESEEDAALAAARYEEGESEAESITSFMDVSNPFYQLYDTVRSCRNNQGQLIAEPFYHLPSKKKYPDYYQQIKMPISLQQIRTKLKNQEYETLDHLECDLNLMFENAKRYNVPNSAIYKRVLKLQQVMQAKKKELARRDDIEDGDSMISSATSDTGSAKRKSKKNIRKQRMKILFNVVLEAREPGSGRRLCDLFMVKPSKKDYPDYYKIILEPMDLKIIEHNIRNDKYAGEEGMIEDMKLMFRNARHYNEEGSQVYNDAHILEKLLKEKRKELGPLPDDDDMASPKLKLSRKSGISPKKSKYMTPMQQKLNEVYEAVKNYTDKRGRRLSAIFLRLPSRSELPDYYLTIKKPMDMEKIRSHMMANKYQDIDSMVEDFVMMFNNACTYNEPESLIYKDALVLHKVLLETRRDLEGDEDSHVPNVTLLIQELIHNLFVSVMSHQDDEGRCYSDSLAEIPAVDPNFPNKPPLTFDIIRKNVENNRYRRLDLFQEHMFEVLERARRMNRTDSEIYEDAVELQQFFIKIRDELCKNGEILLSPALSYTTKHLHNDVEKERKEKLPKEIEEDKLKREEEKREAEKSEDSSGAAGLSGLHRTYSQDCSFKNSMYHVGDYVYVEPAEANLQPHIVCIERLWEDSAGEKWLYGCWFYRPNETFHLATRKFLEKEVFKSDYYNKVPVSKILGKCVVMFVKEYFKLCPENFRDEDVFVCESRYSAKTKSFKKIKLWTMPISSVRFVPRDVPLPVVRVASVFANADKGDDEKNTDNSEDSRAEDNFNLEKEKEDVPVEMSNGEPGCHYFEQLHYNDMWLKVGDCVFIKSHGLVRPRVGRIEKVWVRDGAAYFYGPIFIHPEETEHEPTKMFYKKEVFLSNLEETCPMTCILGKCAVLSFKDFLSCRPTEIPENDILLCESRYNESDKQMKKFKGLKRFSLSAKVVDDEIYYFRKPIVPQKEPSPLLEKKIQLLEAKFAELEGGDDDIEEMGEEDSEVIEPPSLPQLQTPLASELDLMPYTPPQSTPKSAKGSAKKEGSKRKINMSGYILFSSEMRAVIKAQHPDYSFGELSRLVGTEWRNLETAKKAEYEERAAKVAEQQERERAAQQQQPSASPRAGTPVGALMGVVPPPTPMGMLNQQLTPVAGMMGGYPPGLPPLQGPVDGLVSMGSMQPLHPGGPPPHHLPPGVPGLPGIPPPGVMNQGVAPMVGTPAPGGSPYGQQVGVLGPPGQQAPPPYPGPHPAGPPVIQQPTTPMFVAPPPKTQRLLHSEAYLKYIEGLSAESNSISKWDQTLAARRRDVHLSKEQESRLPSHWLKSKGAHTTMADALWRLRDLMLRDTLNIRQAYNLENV
# Chain of Transcription initiation factor TFIID subunit 1-like (Homo sapiens) (Q8IZX4 whole entry, the tested form may be a part): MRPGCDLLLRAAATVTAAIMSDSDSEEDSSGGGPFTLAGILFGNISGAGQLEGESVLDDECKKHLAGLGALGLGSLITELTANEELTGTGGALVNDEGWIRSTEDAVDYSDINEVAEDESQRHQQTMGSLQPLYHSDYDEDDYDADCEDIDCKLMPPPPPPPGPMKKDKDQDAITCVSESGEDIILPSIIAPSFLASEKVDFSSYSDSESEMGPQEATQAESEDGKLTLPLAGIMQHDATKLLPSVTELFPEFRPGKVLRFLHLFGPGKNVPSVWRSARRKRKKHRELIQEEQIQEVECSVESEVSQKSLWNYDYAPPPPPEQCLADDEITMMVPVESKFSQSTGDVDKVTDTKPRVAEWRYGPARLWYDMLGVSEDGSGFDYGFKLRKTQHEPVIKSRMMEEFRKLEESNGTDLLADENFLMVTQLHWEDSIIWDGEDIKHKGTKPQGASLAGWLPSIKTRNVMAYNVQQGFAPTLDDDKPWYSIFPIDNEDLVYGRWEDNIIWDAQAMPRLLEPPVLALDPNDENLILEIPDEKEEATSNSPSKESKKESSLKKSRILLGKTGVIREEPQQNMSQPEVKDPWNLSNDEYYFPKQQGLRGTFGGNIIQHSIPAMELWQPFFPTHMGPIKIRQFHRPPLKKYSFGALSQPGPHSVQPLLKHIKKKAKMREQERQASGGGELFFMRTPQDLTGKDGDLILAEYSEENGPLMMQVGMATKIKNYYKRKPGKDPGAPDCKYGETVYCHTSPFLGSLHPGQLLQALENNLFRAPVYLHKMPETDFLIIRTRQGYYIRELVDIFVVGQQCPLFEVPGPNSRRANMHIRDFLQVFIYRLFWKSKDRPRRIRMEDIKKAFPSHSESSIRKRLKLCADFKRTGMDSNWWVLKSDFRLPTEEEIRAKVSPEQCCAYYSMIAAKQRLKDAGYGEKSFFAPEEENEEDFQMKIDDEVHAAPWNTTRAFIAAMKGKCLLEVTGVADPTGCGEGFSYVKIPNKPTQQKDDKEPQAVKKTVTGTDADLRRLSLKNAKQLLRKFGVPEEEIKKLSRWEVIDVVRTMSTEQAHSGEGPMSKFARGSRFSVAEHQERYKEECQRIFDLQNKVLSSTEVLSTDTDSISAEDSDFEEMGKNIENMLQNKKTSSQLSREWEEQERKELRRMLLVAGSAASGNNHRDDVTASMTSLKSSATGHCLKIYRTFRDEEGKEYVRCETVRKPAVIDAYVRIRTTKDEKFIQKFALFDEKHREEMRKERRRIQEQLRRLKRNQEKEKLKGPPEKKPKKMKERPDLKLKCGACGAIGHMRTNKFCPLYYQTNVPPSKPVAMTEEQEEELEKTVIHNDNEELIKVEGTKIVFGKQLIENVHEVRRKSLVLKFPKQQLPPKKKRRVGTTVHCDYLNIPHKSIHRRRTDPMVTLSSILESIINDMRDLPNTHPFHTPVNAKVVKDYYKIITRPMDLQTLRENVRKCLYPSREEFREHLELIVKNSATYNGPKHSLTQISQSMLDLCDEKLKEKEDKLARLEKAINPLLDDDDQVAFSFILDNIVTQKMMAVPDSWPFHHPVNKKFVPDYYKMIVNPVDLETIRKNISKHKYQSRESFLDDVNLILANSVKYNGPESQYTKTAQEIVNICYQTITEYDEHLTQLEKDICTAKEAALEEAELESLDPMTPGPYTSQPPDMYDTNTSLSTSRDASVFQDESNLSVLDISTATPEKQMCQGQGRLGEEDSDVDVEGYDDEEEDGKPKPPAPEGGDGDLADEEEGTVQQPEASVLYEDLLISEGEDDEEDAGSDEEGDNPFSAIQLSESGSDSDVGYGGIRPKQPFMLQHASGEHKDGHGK
# Chain of Bromodomain-containing protein 3 (Homo sapiens) (Q15059 2-726 limits assumed): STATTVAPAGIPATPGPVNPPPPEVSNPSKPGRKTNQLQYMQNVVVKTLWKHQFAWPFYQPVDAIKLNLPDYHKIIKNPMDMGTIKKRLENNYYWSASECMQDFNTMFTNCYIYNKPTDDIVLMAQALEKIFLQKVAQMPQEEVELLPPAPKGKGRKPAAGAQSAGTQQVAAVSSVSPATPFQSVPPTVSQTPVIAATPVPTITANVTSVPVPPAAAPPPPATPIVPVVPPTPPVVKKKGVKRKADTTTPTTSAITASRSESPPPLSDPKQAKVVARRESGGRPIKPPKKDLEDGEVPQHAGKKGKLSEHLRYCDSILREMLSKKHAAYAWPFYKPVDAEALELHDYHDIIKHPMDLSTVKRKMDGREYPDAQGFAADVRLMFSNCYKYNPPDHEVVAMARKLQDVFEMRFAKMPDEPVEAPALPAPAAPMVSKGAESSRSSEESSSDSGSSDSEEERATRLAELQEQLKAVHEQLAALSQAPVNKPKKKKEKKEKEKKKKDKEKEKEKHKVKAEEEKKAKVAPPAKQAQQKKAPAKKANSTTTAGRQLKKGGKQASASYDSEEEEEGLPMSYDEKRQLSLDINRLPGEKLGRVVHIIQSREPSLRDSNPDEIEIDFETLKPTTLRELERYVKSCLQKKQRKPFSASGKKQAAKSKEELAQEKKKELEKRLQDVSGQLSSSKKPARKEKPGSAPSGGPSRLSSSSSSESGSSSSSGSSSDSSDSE
# Chain of Bromodomain-containing protein 2 (Homo sapiens) (P25440 whole entry, looked up): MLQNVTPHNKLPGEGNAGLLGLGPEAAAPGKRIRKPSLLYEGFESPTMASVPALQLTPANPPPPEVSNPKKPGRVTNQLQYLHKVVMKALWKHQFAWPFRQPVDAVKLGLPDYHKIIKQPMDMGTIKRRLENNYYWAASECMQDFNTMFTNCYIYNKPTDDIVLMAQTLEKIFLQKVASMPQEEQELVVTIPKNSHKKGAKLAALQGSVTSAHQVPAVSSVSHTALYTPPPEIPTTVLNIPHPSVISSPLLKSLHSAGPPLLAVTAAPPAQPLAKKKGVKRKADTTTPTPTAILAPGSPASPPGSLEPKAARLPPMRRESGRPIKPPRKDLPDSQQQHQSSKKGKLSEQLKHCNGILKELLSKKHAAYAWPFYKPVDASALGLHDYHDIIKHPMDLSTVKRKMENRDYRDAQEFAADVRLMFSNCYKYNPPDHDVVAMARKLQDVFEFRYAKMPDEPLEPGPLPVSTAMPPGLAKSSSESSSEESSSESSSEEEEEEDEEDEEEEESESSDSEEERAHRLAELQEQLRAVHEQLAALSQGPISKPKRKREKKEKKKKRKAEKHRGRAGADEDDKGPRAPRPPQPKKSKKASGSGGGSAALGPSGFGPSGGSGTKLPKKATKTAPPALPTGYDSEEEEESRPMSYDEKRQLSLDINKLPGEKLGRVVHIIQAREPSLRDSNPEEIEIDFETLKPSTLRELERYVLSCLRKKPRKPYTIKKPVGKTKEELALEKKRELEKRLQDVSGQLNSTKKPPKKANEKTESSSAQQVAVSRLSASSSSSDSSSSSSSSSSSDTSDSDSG
smiles,measurement,setting,value
COc1ccccc1C(=O)Nc1cc2c(cc1N1CCCC1)n(C)c(=O)n2C,ΔTm,[1],0.26 °C
same,ΔTm,[2],0.5 °C
same,ΔTm,[3],0.5 °C
same,ΔTm,[4],0.31 °C
same,ΔTm,[5],-0.04 °C
same,ΔTm,[6],0.9 °C
same,ΔTm,[7],0.73 °C
same,ΔTm,[8],0.75 °C
same,ΔTm,[9],0.74 °C
same,ΔTm,[10],0.79 °C
same,ΔTm,[11],0.33 °C
same,ΔTm,[12],1.35 °C
same,ΔTm,[13],-0.44 °C
same,ΔTm,[14],1.21 °C
same,ΔTm,[15],-0.35 °C
same,ΔTm,[16],1.37 °C
same,ΔTm,[17],0.74 °C
same,ΔTm,[18],-0.2 °C
same,ΔTm,[19],0.72 °C
same,ΔTm,[20],0.54 °C
same,ΔTm,[21],0.13 °C
same,ΔTm,[22],0.27 °C
same,ΔTm,[23],3.84 °C
same,ΔTm,[24],0.03 °C
same,ΔTm,[25],2.09 °C
same,ΔTm,[26],0.33 °C
same,ΔTm,[27],0.2 °C
same,ΔTm,[28],0.18 °C
same,ΔTm,[29],2.36 °C and 1.34 °C
same,ΔTm,[30],-0.24 °C
same,ΔTm,[31],0.21 °C
same,ΔTm,[32],0.88 °C
same,inhibition,[33],35.5%
same,ΔTm,[34],0.36 °C
same,ΔTm,[35],0.18 °C
same,ΔTm,[36],0.2 °C
same,ΔTm,[37],0.33 °C
same,ΔTm,[38],0.9 °C
same,ΔTm,[39],-0.53 °C
same,ΔTm,[40],-0.03 °C
same,ΔTm,[41],-0.03 °C
same,ΔTm,[42],0.31 °C
same,ΔTm,[43],0.71 °C
